Source: article PMC7571127, “Daurichromenic Acid from the Chinese Traditional Medicinal Plant Rhododendron dauricum Inhibits Sphingomyelin Synthase and Aβ Aggregation” (Molecules, 2020)
Like-named read-outs stand apart in the source and are kept apart here.

Legend:
[1] = target: T1, Aβ42 aggregation (Homo sapiens, UniProt P05067); assay: Aβ aggregation inhibition, microtiter-scale high-throughput screening (MSHTS) assay; format: biochemical
T1 construct: 30 nM QD-labeled Aβ40 (QDAβ), and 30 μM Aβ42 in PBS
T1 sequence (P05067 672-713 limits assumed): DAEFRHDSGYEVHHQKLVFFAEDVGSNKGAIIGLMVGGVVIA
Description: Alzheimer’s disease (AD) is a multifactorial disease, which is believed to be caused by complex interactions among several contributing patho-mechanisms. The ability of DCA and its derivatives, along with other natural compounds, ginkgolic acids (8, 9) (Figure 2) and malabaicone A–C (10, 11 and 12), to inhibit Aβ42 aggregation was evaluated by microtiter-scale high-throughput screening (MSHTS) assays. EC50 values were measured from inhibition curves, in which the percent SDs of fluorescence intensities were plotted against the concentration of each compound (Figure 3). Here, 30 nM quantum dot amyloid beta (QDAβ) and 30 µM of Aβ were incubated with different concentrations to evaluate the EC50 of all derivatives. […] The inhibitory activities of the other cyclized DCAs and malabaricones were lower (Figure S2).
The aggregation inhibitory activities of plant extracts, fractions, DCA, DCA derivatives, and naturally occurring SMS inhibitors (compounds 8, 9, and 10) were measured using a modified MSHTS system. Various concentrations of each were incubated with 30 nM QD-labeled Aβ40 (QDAβ), and 30 μM Aβ42 in PBS containing 5% EtOH and 3% DMSO at 37 °C for 24 h in 1536-well plates (782096, Greiner) (Kremsmünster, Austria). The center of each well as viewed with an inverted fluorescence microscope (TE2000, Nikon)) (Tokyo, Japan) equipped with a color CCD camera (DP72, Olympus) (Tokyo, Japan), and the central region of each well were measured with ImageJ software Ver 1.53b (NIH) to determine the standard deviations (SD) of fluorescence intensities of 40,000 pixels (200 × 200 pixels: 320 × 320 μm). The SD values, which were approximately proportional to the amount of aggregates, were plotted against the concentrations of the putative inhibitors to generate inhibition curves, and the EC50 values were determined.
Figure 3 (A) Inhibition of Aβ42 aggregation by DCA, its derivatives, and natural sphingomyelin synthase inhibitors, as shown by incubation of 30 nM QDAβ and 30 µM Aβ with various concentrations of these compounds. (B) Estimation of EC50 values from inhibition curves, in which the percent SDs of fluorescence intensities were plotted against the concentrations of these compounds.

[2] = target: T2, SMS1 (Homo sapiens, UniProt Q86VZ5); assay: SMS assay, cell lysate with fluorescent substrate C6-NBD-Cer (SMS1); format: biochemical
T2 construct: expressed in transfected cells; host or cells: ZS/SMS1 cells (sonicated lysate)
T2 sequence (Q86VZ5 1-413): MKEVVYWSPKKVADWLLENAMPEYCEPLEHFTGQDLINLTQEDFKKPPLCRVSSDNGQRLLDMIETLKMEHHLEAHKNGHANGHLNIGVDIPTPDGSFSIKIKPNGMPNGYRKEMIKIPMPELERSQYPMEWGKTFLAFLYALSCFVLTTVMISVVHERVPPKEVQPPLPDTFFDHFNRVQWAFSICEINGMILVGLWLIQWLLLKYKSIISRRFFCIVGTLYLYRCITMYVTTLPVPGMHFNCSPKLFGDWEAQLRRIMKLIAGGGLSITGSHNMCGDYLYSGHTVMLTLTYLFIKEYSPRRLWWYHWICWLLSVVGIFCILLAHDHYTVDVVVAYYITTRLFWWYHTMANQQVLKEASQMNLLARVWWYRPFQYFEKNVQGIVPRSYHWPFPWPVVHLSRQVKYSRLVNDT
Description: (§1) The ability of DCA and its derivatives to inhibit the SMS isozymes SMS1 and SMS2 was evaluated using a cell lysate assay and the fluorescent substrate C6-NBD (4-nitrobenzo-2-oxa-1,3-diazole)-Cer. […] Thus, the carboxylic acid group of DCAs are essential moieties for their inhibition of SMSs. However, the SMS has not been succeeded in its crystallization. Therefore, a direct comparison with the previously isolated SMS inhibitor ginkgolic acid has been examined. […] Further, a previous report concerning the mode of action for Aβ aggregation inhibition for small molecules gave the insight that the crucial role of a hydrophobic-side hydrocarbon chain and an aromatic ring as well as its two hydrophilic functions causes significant interaction with the amyloid.
(§2) ZS/SMS1 and ZS/SMS2 cells (protein concentration 0.1 µg/µL) were diluted in 20 mM Tris-buffer (pH 7.5) and sonicated. A 1 µL aliquot of each compound at the desired concentration was added to 100 µL aliquots of the cell lysates and the solutions were incubated at 37 °C for 30 min. A 1 µL aliquot of C6-NBD-ceramide was added to each solution and the solutions were incubated for 3 h at 37 °C. The reactions were stopped by addition of 400 µL of MeOH/CHCl3 [1/2 (v/v)], and the mixtures were shaken and centrifuged at 1500 rpm for 5 min. The formation of C6-NBD-sphingomyelin was quantified by HPLC determination of its peak area. Inhibitory activity was quantified by a reverse-phase HPLC assay using a JACSO HPLC system, equipped with a PU-2089 Plus and FP-2020 Plus set at λex = 470 nm and λem = 530 nm. A 50 × 4.6 YMC-Pack Diol-120-NP column (5-µm particle size) was used with the mobile phase (IPA/hexane/water) at a flow rate of 1.0 mL/min
(§3) Figure 1 Inhibition of SMS1 and SMS2 activities by (a) DCA (1), (b) derivative (4), (c) derivative (6) and (d) derivative (7). IC50 values were measured using a cell lysate assay. SMS-expressing cell lysates and compounds were incubated for 3 h at 37 °C, and the extracted fluorescent lipids were directly analyzed by HPLC. Each point represents the mean ± SD of triplicate assays.

[3] = target: T3, SMS2 (Homo sapiens, UniProt Q8NHU3); assay: SMS assay, cell lysate with fluorescent substrate C6-NBD-Cer (SMS2); format: biochemical
T3 construct: expressed in transfected cells; host or cells: ZS/SMS2 cells (sonicated lysate)
T3 sequence (Q8NHU3 1-365): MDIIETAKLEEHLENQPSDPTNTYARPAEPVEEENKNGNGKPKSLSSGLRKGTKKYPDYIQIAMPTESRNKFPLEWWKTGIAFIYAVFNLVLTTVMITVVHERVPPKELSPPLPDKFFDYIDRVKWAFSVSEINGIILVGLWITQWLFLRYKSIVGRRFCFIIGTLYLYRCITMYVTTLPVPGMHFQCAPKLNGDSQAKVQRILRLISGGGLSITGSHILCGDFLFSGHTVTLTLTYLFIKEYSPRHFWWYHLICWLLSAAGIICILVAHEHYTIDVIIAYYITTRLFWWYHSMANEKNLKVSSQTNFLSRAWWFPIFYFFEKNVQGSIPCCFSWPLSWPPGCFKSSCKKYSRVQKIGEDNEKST
Description: as §1, §2, §3

[4] = test system: sphingomyelin synthase; assay: SMS activity, isozyme not specified (abstract value; fractions of Rhododendron dauricum extract); format: biochemical; conditions: isozyme not stated, read-out: IC50, inhibition of sphingomyelin synthase activity
[5] = target: T1, Aβ42 aggregation; set-up: method as in PMID 23991168; conditions: comparison value; read-out: EC50 of Aβ aggregation inhibition (MSHTS); cited from earlier work
[6] = 30 nM QDAβ and 30 µM Aβ42, 37 °C, 24 h, read-out: MHSTS Assay EC50 (inhibition of Aβ42 aggregation)
[7] = ZS/SMS1 cell lysate, C6-NBD-ceramide, 3 h at 37 °C, HPLC, read-out: SMS Assay (SMS1) IC50
[8] = ZS/SMS2 cell lysate, C6-NBD-ceramide, 3 h at 37 °C, HPLC, read-out: SMS Assay (SMS2) IC50
[9] = ZS/SMS1 cell lysate, C6-NBD-ceramide, 3 h at 37 °C, HPLC
[10] = ZS/SMS2 cell lysate, C6-NBD-ceramide, 3 h at 37 °C, HPLC

SMILES | EC50 [1, 6] [µM] | IC50 [2, 7] [µM] | IC50 [3, 8] [µM] | SMS Assay (SMS1) IC50 [2, 9] | SMS Assay (SMS2) IC50 [3, 10] | also measured
CC(C)=CCC/C(C)=C/CC[C@@]1(C)C=Cc2c(cc(C)c(C(=O)O)c2O)O1 [Compound 1, Daurichromenic acid] |  |  |  |  |  | EC50 [1]: 57 µM; IC50 [2]: 7 µM; IC50 [3]: 4 µM; IC50 [4]: 4 µM
COc1c2c(cc(C)c1C(=O)O)O[C@@](C)(CC/C=C(\C)CCC=C(C)C)C=C2 [Compound 4, (S,E)-2-(4,8-Dimethylnona-3,7-dien-1-yl)-5-methoxy-2,7-dimethyl-2H-chromene-6-carboxylic acid] | 74 | 17 | 10 |  |  | 
CCCCCC/C=C\CCCCCCCc1cccc(O)c1C(=O)O [Compound 8, ginkgolic acid, reference compound] | 149 | 1.5 | 1.5 |  |  | 
CCCCCCCCCCCCCCCc1cccc(O)c1C(=O)O [Compound 9, ginkgolic acid, reference compound] | 296 | 2 | 2 |  |  | 
O=C(/C=C/c1ccc(O)c(O)c1)O[C@H](Cc1ccc(O)c(O)c1)C(=O)O [rosmarinic acid] |  |  |  |  |  | EC50 [5]: 60 µM

Second part, led by results:

EC50 [1, 6] [µM] | IC50 [2, 7] [µM] | IC50 [3, 8] [µM] | SMS Assay (SMS1) IC50 [2, 9] | SMS Assay (SMS2) IC50 [3, 10] | SMILES | also measured
238 | 4 | 5 |  |  | Cc1cc2c(c(O)c1C(=O)O)CC1[C@]3(C)CCCC(C)(C)[C@H]3CC[C@]1(C)O2 (single isomer, unassigned; (-)) [Compound 7, (−) Hongoquercin A] | 
 |  |  | inactive | inactive | COC(=O)c1c(C)cc2c(c1O)C=C[C@](C)(CC/C=C(\C)CCC=C(C)C)O2 [Compound 2, Methyl Ester of DCA] | 
 |  |  | inactive | inactive | COC(=O)c1c(C)cc2c(c1OC)C=C[C@](C)(CC/C=C(\C)CCC=C(C)C)O2 [Compound 3, Methyl(S,E)-2-(4,8-dimethylnona-3,7-dien-1-yl)-5-methoxy-2,7-dimethyl-2H-chromene-6 carboxylate] | 
 |  |  | inactive | inactive | COC(=O)c1c(C)cc2c(c1O)C=C1[C@]3(C)CCCC(C)(C)[C@H]3CC[C@]1(C)O2 [Compound 5, (−)-(5R,8S,10R)-9,15-Didehydro hongoquercin A methyl ester] | 
 | 9 | 7 |  |  | Cc1cc2c(c(O)c1C(=O)O)C=C1[C@]3(C)CCCC(C)(C)[C@H]3CC[C@]1(C)O2 [Compound 6, (−)-(5R,8S,10R)-9,15-Didehydro hongoquercin A] | 
